Structures can show the parent of a compound that is named as a salt. Starred links: 1 amine or outer side, 2 acyl side, 3 side chain; linkers in the order of their positions; H or OH if unused. Positions of bridges follow the written chain, without caps; N, C: chain ends. Non-standard residues stand in square brackets, D forms with d. Residues, ends and D or L forms follow the SMILES beside them. Groups on a side chain read outwards from the residue. *: point of attachment. Trp(7-(3-AcNH-Ph)) = CC(=O)Nc1cccc(-c2cccc3c(C[C@H](N)C(=O)O)c[nH]c23)c1; X33 = C[N+](C)(C)CCCCc1cn(-c2ccc(C[C@H](N[*:1])C(=O)[*:2])cc2)nn1; Me3N+(CH2)2O(CH2)2O(CH2)2CO = C[N+](C)(C)CCOCCOCCC(=O)*; PEG12 = NCCOCCOCCOCCOCCOCCOCCOCCOCCOCCOCCOCCOCCC(=O)O; CH2CH2OCH2CH2OCH2CH2NMe3+ = C[N+](C)(C)CCOCCOCC*; Trp(7-Me) = Cc1cccc2c(C[C@H](N)C(=O)O)c[nH]c12; Lys(Me3) = C[N+](C)(C)CCCC[C@H](N)C(=O)O; X73 = C[N+](C)(C)CCOCCOCCNC(=O)CCCCCCCC*; 3Pal(5-Me) = Cc1cncc(C[C@H](N)C(=O)O)c1; 2Nal = N[C@@H](Cc1ccc2ccccc2c1)C(=O)O; AEF = NCCOc1ccc(C[C@H](N)C(=O)O)cc1; X45 = COCC[N+](C)(C)CCc1cn(CC*)nn1; 3Pal = N[C@@H](Cc1cccnc1)C(=O)O; Lys(Me) = CNCCCC[C@H](N)C(=O)O; Pen = CC(C)(S)[C@H](N)C(=O)O; Thp = NC1(C(=O)O)CCOCC1; X17 = C[N+]1(CC*)CCOCC1; X3 = C[N+](C)(C)CCCCC*; Me2NCH2CH2 = CN(C)CC*; Tfa = O=C(C(F)(F)F)*; Sar = CNCC(=O)O
Experiment: Exposed Polar Surface Area (EPSA)
Assay type: physicochemical
Settings: SFC on Chirex 3014 column; sample 1 mM DMSO stock; read-out: EPSA
Method in brief: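 Retention-based polarity: supercritical CO2 with 20 mM ammonium formate in MeOH (5–60%, 20%/min), Chirex 3014 column, 35 °C. Calibrated against 8 standards to give EPSA (Å^2); each sample measured twice.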

EPSA	SMILES
155 A^2	CC(=O)N(C)CCCC[C@@H]1NC(=O)[C@H](Cc2c[nH]c3c(C)cccc23)NC(=O)[C@H]([C@@H](C)O)NC(=O)[C@H](CC(=O)N(C)C)NC(=O)[C@@H](NC(=O)CCOCCOCC[N+](C)(C)C)C(C)(C)SSC(C)(C)[C@@H](C(=O)N[C@@H](Cc2ccc(OCCOCCOCC[N+](C)(C)C)cc2)C(=O)N[C@@H](Cc2ccc3ccccc3c2)C(=O)NC2(C(=O)N[C@@H](CCCCN(C)C(C)=O)C(=O)N[C@@H](CC(N)=O)C(=O)N[C@@H](Cc3cccnc3)C(=O)N(C)CC(N)=O)CCOCC2)NC1=O [compound 363, cPEG3aCO-Pen(3)-N(N(Me)2)-T-7MeW-K(NMeAc)-Pen(3)-APEG3F-2Nal-THP-K(NMeAc)-N-3Pya-Sar-CONH2] ({Me3N+(CH2)2O(CH2)2O(CH2)2CO}-[Pen]D(NMe2)T[Trp(7-Me)][Lys(Me)](Ac)[Pen]Y(CH2CH2OCH2CH2OCH2CH2NMe3+)[2Nal][Thp][Lys(Me)](Ac)N[3Pal][Sar]-NH2; disulfide 1-6)
174 A^2	CC(=O)NCCCC[C@@H]1NC(=O)[C@H](Cc2c[nH]c3c(C)cccc23)NC(=O)[C@H]([C@@H](C)O)NC(=O)[C@H](CC(N)=O)NC(=O)[C@@H](NC(C)=O)C(C)(C)SSC(C)(C)[C@@H](C(=O)N[C@@H](Cc2ccc(OCC[N+]3(C)CCOCC3)cc2)C(=O)N[C@@H](Cc2ccc3ccccc3c2)C(=O)NC2(C(=O)N[C@@H](CCC(=O)O)C(=O)N[C@@H](CC(N)=O)C(=O)N[C@@H](Cc3cccnc3)C(=O)N(C)CC(N)=O)CCOCC2)NC1=O [compound 431] (Ac-[Pen]NT[Trp(7-Me)]K(Ac)[Pen]Y(X17)[2Nal][Thp]EN[3Pal][Sar]-NH2; disulfide 1-6 (inferred))
161 A^2	CC(=O)NCCCC[C@@H]1NC(=O)[C@H](Cc2c[nH]c3c(C)cccc23)NC(=O)[C@H]([C@@H](C)O)NC(=O)[C@H](CC(N)=O)NC(=O)[C@@H](NC(C)=O)C(C)(C)SSC(C)(C)[C@@H](C(=O)N[C@@H](Cc2ccc(-n3cc(CCCC[N+](C)(C)C)nn3)cc2)C(=O)N[C@@H](Cc2ccc3ccccc3c2)C(=O)NC2(C(=O)N[C@@H](CCCCNC(C)=O)C(=O)N[C@@H](CC(N)=O)C(=O)N[C@@H](Cc3cccnc3)C(=O)N(C)CC(N)=O)CCOCC2)NC1=O [compound 425] (Ac-[Pen]NT[Trp(7-Me)]K(Ac)[Pen][X33][2Nal][Thp]K(Ac)N[3Pal][Sar]-NH2; disulfide 1-6 (inferred))
156 A^2	CC(=O)NCCCC[C@@H]1NC(=O)[C@H](Cc2c[nH]c3c(C)cccc23)NC(=O)[C@H]([C@@H](C)O)NC(=O)[C@H](CC(N)=O)NC(=O)[C@@H](NC(=O)[C@@H](CCCCNC(=O)CCOCCOCCOCCOCCOCCOCCOCCOCCOCCOCCOCCOCCNC(C)=O)NC(C)=O)C(C)(C)SSC(C)(C)[C@@H](C(=O)N[C@@H](Cc2ccc(OCCN)cc2)C(=O)N[C@@H](Cc2ccc3ccccc3c2)C(=O)NC2(C(=O)N[C@@H](CCCCNC(C)=O)C(=O)N[C@@H](CC(N)=O)C(=O)N[C@@H](Cc3cccnc3)C(=O)N(C)CC(N)=O)CCOCC2)NC1=O [compound 40] (Ac-[dK]([PEG12-Ac])[Pen]NT[Trp(7-Me)]K(Ac)[Pen][AEF][2Nal][Thp]K(Ac)N[3Pal][Sar]-NH2; disulfide 2-7)
147 A^2	COCC[N+](C)(C)CCc1cn(CCOc2ccc(C[C@H](NC(=O)[C@H]3NC(=O)[C@H](CCCCNC(C)=O)NC(=O)[C@H](Cc4c[nH]c5c(C)cccc45)NC(=O)[C@H]([C@@H](C)O)NC(=O)[C@H](CC(N)=O)NC(=O)[C@@H](NC(C)=O)C(C)(C)SSC3(C)C)C(=O)N[C@@H](Cc3ccc4ccccc4c3)C(=O)NC3(C(=O)N[C@@H](CCCCNC(C)=O)C(=O)N[C@@H](CC(N)=O)C(=O)N[C@@H](Cc4cccnc4)C(=O)N(C)CC(N)=O)CCOCC3)cc2)nn1 [compound 249] (Ac-[Pen]NT[Trp(7-Me)]K(Ac)[Pen]Y(X45)[2Nal][Thp]K(Ac)N[3Pal][Sar]-NH2; disulfide 1-6 (inferred))
146 A^2	CC(=O)NCCCC[C@@H]1NC(=O)[C@H](Cc2c[nH]c3c(C)cccc23)NC(=O)[C@H]([C@@H](C)O)NC(=O)[C@H](CC(N)=O)NC(=O)[C@@H](NC(C)=O)C(C)(C)SSC(C)(C)[C@@H](C(=O)N[C@@H](Cc2ccc(OCCOCCOCC[N+](C)(C)C)cc2)C(=O)N[C@@H](Cc2ccc3ccccc3c2)C(=O)NC2(C(=O)N[C@@H](CCCCNC(C)=O)C(=O)N[C@@H](CC(N)=O)C(=O)N[C@@H](Cc3cccnc3)C(=O)N(C)CC(N)=O)CCOCC2)NC1=O [compound 194] (Ac-[Pen]NT[Trp(7-Me)]K(Ac)[Pen]Y(CH2CH2OCH2CH2OCH2CH2NMe3+)[2Nal][Thp]K(Ac)N[3Pal][Sar]-NH2; disulfide 1-6)
144 A^2	CC(=O)N(C)CCCC[C@@H]1NC(=O)[C@H](Cc2c[nH]c3c(C)cccc23)NC(=O)[C@H]([C@@H](C)O)NC(=O)[C@H](CC(=O)N(C)C)NC(=O)[C@@H](NC(=O)CCOCCOCC[N+](C)(C)C)C(C)(C)SSC(C)(C)[C@@H](C(=O)N[C@@H](Cc2ccc(OCCCCCCCCC(=O)NCCOCCOCC[N+](C)(C)C)cc2)C(=O)N[C@@H](Cc2ccc3ccccc3c2)C(=O)NC2(C(=O)N[C@@H](CCCCN(C)C(C)=O)C(=O)N[C@@H](CC(N)=O)C(=O)N[C@@H](Cc3cccnc3)C(=O)N(C)CC(=O)N(C)C)CCOCC2)NC1=O [compound 254, cPEG3aCO-Pen(3)-N(N(Me)2)-T-7MeW-K(NMeAc)-Pen(3)-YC8CO(NHPEG3a)-2Nal-THP-K(NMeAc)-N-3Pya-Sar-CON(Me)2] ({Me3N+(CH2)2O(CH2)2O(CH2)2CO}-[Pen]D(NMe2)T[Trp(7-Me)][Lys(Me)](Ac)[Pen]Y(X73)[2Nal][Thp][Lys(Me)](Ac)N[3Pal][Sar]-NMe2; disulfide 1-6)
151 A^2	CC(=O)N(C)CCCC[C@@H]1NC(=O)[C@H](Cc2c[nH]c3c(C)cccc23)NC(=O)[C@H]([C@@H](C)O)NC(=O)[C@H](CC(=O)N(C)C)NC(=O)[C@@H](NC(=O)[C@H](CCCC[N+](C)(C)C)NC(=O)C(F)(F)F)C(C)(C)SSC(C)(C)[C@@H](C(=O)N[C@@H](Cc2ccc(OCCN(C)C)cc2)C(=O)N[C@@H](Cc2ccc3ccccc3c2)C(=O)NC2(C(=O)N[C@@H](CCC(=O)O)C(=O)N[C@@H](CC(N)=O)C(=O)N[C@@H](Cc3cccnc3)C(=O)N(C)CC(=O)N(C)C)CCOCC2)NC1=O [compound 93, CF3CO-K(Me)3-Pen(3)-N(N(Me)2)-T-7MeW-K(NMeAc)-Pen(3)-AEF(N(Me)2)-2Nal-THP-E-N-3Pya-Sar-CON(Me)2] (Tfa-[Lys(Me3)][Pen]D(NMe2)T[Trp(7-Me)][Lys(Me)](Ac)[Pen]Y(Me2NCH2CH2)[2Nal][Thp]EN[3Pal][Sar]-NMe2; disulfide 2-7)
149 A^2	CC(=O)NCCCC[C@@H]1NC(=O)[C@H](Cc2c[nH]c3c(C)cccc23)NC(=O)[C@H]([C@@H](C)O)NC(=O)[C@H](CC(N)=O)NC(=O)[C@@H](NC(=O)CCCCC[N+](C)(C)C)C(C)(C)SSC(C)(C)[C@@H](C(=O)N[C@@H](Cc2ccc(OCCNC(=O)CCOCCOCC[N+](C)(C)C)cc2)C(=O)N[C@@H](Cc2ccc3ccccc3c2)C(=O)NC2(C(=O)N[C@@H](CNC(C)=O)C(=O)N[C@@H](CC(N)=O)C(=O)N[C@@H](Cc3cccnc3)C(=O)N(C)CC(N)=O)CCOCC2)NC1=O [compound 192]
183 A^2	CC(=O)NCCCC[C@@H]1NC(=O)[C@H](Cc2c[nH]c3c(-c4cccc(NC(C)=O)c4)cccc23)NC(=O)[C@H]([C@@H](C)O)NC(=O)[C@H](CC(N)=O)NC(=O)[C@@H](NC(=O)[C@@H](CCCNC(=N)N)NC(C)=O)C(C)(C)SSC(C)(C)[C@@H](C(=O)N[C@@H](Cc2ccc(OCCCCC[N+](C)(C)C)cc2)C(=O)N[C@@H](Cc2ccc3ccccc3c2)C(=O)NC2(C(=O)N[C@@H](CCC(=O)O)C(=O)N[C@@H](CC(N)=O)C(=O)N[C@@H](Cc3cncc(C)c3)C(=O)N(C)CC(N)=O)CCOCC2)NC1=O [compound 540, MeCO-r-Pen(3)-N-T-7(3NAcPh)W-K(Ac)-Pen(3)-TMAPF-2Nal-THP-E-N-5MePyridinAla-Sar-CONH2] (Ac-[dR][Pen]NT[Trp(7-(3-AcNH-Ph))]K(Ac)[Pen]Y(X3)[2Nal][Thp]EN[3Pal(5-Me)][Sar]-NH2; disulfide 2-7)
155 A^2	CC(=O)N(C)CCCC[C@H](NC(=O)C1(NC(=O)[C@H](Cc2ccc3ccccc3c2)NC(=O)[C@H](Cc2ccc(OCCCCC[N+](C)(C)C)cc2)NC(=O)[C@H]2NC(=O)[C@H](CCCC[N+](C)(C)C)NC(=O)[C@H](Cc3c[nH]c4c(C)cccc34)NC(=O)[C@H]([C@@H](C)O)NC(=O)[C@H](CC(=O)N(C)C)NC(=O)[C@@H](NC(=O)CCOCCOCC[N+](C)(C)C)C(C)(C)SSC2(C)C)CCOCC1)C(=O)N[C@@H](CC(N)=O)C(=O)N[C@@H](Cc1cccnc1)C(=O)N(C)CC(=O)N(C)C [compound 329, cPEG3aCO-Pen(3)-N(N(Me)2)-T-7MeW-K(Me)3-Pen(3)-TMAPF-2Nal-THP-K(NMeAc)-N-3Pya-Sar-CON(Me)2] ({Me3N+(CH2)2O(CH2)2O(CH2)2CO}-[Pen]D(NMe2)T[Trp(7-Me)][Lys(Me3)][Pen]Y(X3)[2Nal][Thp][Lys(Me)](Ac)N[3Pal][Sar]-NMe2; disulfide 1-6)
158 A^2	CC(=O)NCCCC[C@@H]1NC(=O)[C@H](Cc2c[nH]c3c(C)cccc23)NC(=O)[C@H]([C@@H](C)O)NC(=O)[C@H](CC(N)=O)NC(=O)[C@@H](NC(=O)[C@@H](CCCCNC(=O)CCOCCOCC[N+](C)(C)C)NC(C)=O)C(C)(C)SSC(C)(C)[C@@H](C(=O)N[C@@H](Cc2ccc(OCCN)cc2)C(=O)N[C@@H](Cc2ccc3ccccc3c2)C(=O)NC2(C(=O)N[C@@H](CCCCNC(C)=O)C(=O)N[C@@H](CC(N)=O)C(=O)N[C@@H](Cc3cccnc3)C(=O)N(C)CC(N)=O)CCOCC2)NC1=O [compound 88] (Ac-[dK](Me3N+(CH2)2O(CH2)2O(CH2)2CO)[Pen]NT[Trp(7-Me)]K(Ac)[Pen][AEF][2Nal][Thp]K(Ac)N[3Pal][Sar]-NH2; disulfide 2-7)
